For data set [1], the system named is male Wistar rat. Description: Effect of orotic acid on core body temperature at rest (telemetry, breath gas analysis, spontaneous activity). Type of data set: in vivo. The source says:
The body temperature lowering action of the body temperature lowering agent according to the embodiment of the present invention can be measured by a method for measuring the core body temperature at rest. The core body temperature at rest can be measured in accordance with a known method, for example, the method described in an article of Takahashi et al. (Nature 583: 109-114, 2020) and the like. Specifically, the measurement can be performed in the following manner. The core body temperature at rest is measured using a TRM54P Rat Telemetry System (available from KAHA Sciences) and SmartPad (TR181: available from KAHA Sciences) and quantified. The main body of TRM54P Rat Telemetry System is indwelled in the abdominal cavity of a test animal for measurement. All experiments are performed in the light phase, and on the day of the experiments, a rat is fasted 2 hours before start of the test to eliminate the effect of food-induced heat production. After the core body temperature at rest is measured for 20 minutes, a drug (orotic acids) or vehicle is intraperitoneally administered, and the core body temperature is measured for 120 minutes. In a case where the core body temperature at rest is lowered as compared with a case where orotic acids are not administered, it can be determined that the orotic acids have a body temperature lowering action. A 10-week-old male Wistar rat was used, and a one-week preliminary breeding period was provided before the day of an experiment. During the experiment, room temperature was maintained at 22±2° C. After the preliminary breeding, a telemetry (TRM54P, available from KAHA Sciences) for measuring the body temperature was indwelled in the abdominal cavity, and a recovery period and an acclimation period were provided for one week each. 300 mg/kg orotic acid, 30 mg/kg orotic acid, or a vehicle (1% carboxymethyl cellulose) was intraperitoneally administered to examine the effect on the core body temperature at rest. In addition to the core body temperature and a heart rate, an oxygen/carbon dioxide intake was measured using a breath gas analyzer (trade name: Oxymax, available from Columbus Instruments) to calculate a respiratory exchange ratio (also referred to as RER) and an amount of heat production. In addition, the amount of spontaneous activity was measured using an infrared beam sensor (trade name: beam sensor type spontaneous activity amount measuring device, available from Panlab). Note that in the experiment, the rat was placed under fasting for 2 hours before the start of the experiment, and the core body temperature at rest was measured for 20 minutes. Thereafter, the orotic acid or vehicle was intraperitoneally administered, and the measurement was performed until 2 hours later. The orotic acid was used in a free form.

The test system of data set [2] is male Wistar rat. The data set is described as follows: Effect of orotic acid on core body temperature during treadmill exercise. Type of data set: in vivo. Particulars: treadmill 20 m/min for 30 minutes. The source says:
The body temperature elevation suppressing action of the body temperature elevation suppressor according to the embodiment of the present invention can be measured by a method for measuring the core body temperature during exercise. The core body temperature during exercise can be measured in accordance with a known method, for example, a method described in the article by Takahashi et al. (Nature 583: 109-114, 2020) and the like. Specifically, the measurement can be performed in the following manner. A rat is placed in a treadmill metabolism chamber for small animals having an inclination of 10°, and after measuring the core body temperature at rest for 20 minutes, a single dose of a drug (orotic acids) is administered intraperitoneally. After the administration, the rat is left in a rest state for 15 minutes, and then exercise is started. The exercise is started at a running speed of 5 m/min, the running speed is increased to 20 m/min over 5 minutes, and the core body temperature is measured in the same manner as the method for measuring the core body temperature at rest. In a case where the core body temperature elevation during exercise is suppressed as compared with a case where the orotic acids are not administered, it can be determined that the orotic acids have the body temperature elevation suppressing action. A 10-week-old male Wistar rat was used, and a one-week preliminary breeding period was provided before the day of an experiment. During the experiment, room temperature was maintained at 22±2° C. After the preliminary breeding, a telemetry (trade name: TRM54P, available from KAHA Sciences) for measuring the body temperature was indwelled in the abdominal cavity, and a running test was performed after a recovery period of one week. Note that in the experiment, after 300 mg/kg orotic acid or a vehicle (physiological saline) was intraperitoneally administered in a rest state, treadmill exercise (20 m/min) was performed for 30 minutes, and the measurement was performed until 1 hour after the end of the exercise. The measurement items were core body temperature, a blood pressure, a heart rate, and breath gas metabolism. From the obtained oxygen/carbon dioxide intake, exercise economy was calculated. The orotic acid was used in a free form.

For another data set, the system named is rat. The settings on record: orotic acid administered to a rat, Non-Patent Document 2; cited from earlier work.

Regarding `O=C(O)c1cc(=O)[nH]c(=O)[nH]1` [orotic acid], the “amount of spontaneous activity at rest” value in the data set with male Wistar rat [1] (30 mg/kg and 300 mg/kg intraperitoneal vs vehicle, infrared beam sensor, FIG. 4) is “no difference between the groups”. In the data set on male Wistar rat [1] (30 mg/kg and 300 mg/kg intraperitoneal, FIG. 1), the “core body temperature at rest, dose dependence” value is recorded as “decreased in a concentration dependent manner”. In addition, in the data set on male Wistar rat [1] (30 mg/kg and 300 mg/kg intraperitoneal, FIG. 2), the “heart rate at rest” value is “did not fluctuate”. Further, the “core body temperature at rest” value in the data set on male Wistar rat [1] (300 mg/kg intraperitoneal, vs vehicle (1% carboxymethyl cellulose), measured until 2 hours after administration, FIG. 1) is “significantly decreased”. Besides, the “amount of heat production at rest” value with male Wistar rat [1] (300 mg/kg intraperitoneal, vs vehicle, breath gas analyzer, FIG. 3) is “significantly decreased”. Besides, in the data set on male Wistar rat [1] (orotic acid administered groups (30 and 300 mg/kg intraperitoneal), data not shown), the “contraction phase, diastole phase and mean blood pressure at rest” value is given as “significantly increased”. The exercise economy result with male Wistar rat [2] (300 mg/kg intraperitoneal vs vehicle (physiological saline), FIG. 8) is “increased”. Also, in the data set on male Wistar rat [2] (300 mg/kg intraperitoneal vs vehicle, FIG. 5), the “excessive core body temperature elevation during exercise” value is reported as “suppressed”. Further, in the data set with male Wistar rat [2] (300 mg/kg intraperitoneal vs vehicle, FIG. 6), the “heart rate during exercise” value is recorded as “significantly decreased”. In the data set on male Wistar rat [2] (300 mg/kg intraperitoneal vs vehicle, FIG. 7), the “amount of heat production during exercise” value was “lowered”. Also, in the data set on rat, the body temperature result is on record as “not lowered”.

The record behind these values is patent US20240122929A1, “BODY TEMPERATURE LOWERING AGENT, BODY TEMPERATURE ELEVATION SUPPRESSOR, FOOD COMPOSITION FOR LOWERING BODY TEMPERATURE,AND FOOD COMPOSITION FOR SUPPRESSING BODY TEMPERATURE ELEVATION” (University of Tsukuba, priority 2021, published 2024).
